Measurements as given in patent US20100055099A1, “Diagnostics and Treatments for VEGF-Independent Tumors” (priority 2008, published 2010).

How the values were obtained:
[1] = test system: xenograft models; details: most xenograft models tested; cited from earlier work
[2] = test system: primary epithelial cells from PyMT.epiVEGF+/+ tumors; assay: Cell migration assay, response to HGF; type: cell-based, mouse; details: HGF 40 ng/ml, 18 hours, primary tumors from PyMT.epiVEGF+/+ mice
Description: (§1) Primary epithelial cells, designated as K0.1, K0.2, K0.3 and K0.4, were isolated from PyMT.epiVEGF−/− tumors. Primary epithelial cells, designated as WT. 1, WT.2, WT.3, WT.4 and WT.5, were isolated from in PyMT.epiVEGF+/+ tumors. WT.c is epithelial cells from a cell line created from PyMT.VEGF+/+.loxP tumor. KO.c is epithelial cells from a cell line created from PyMT.VEGF+/+.loxP tumors wherein VEGF was knocked out by Adenovirus expressing Cre-recombinase (Adeno-Cre) infection in vitro. Epithelial-specific Cre-loxP recombination was confirmed through immunocytochemistry with anti-Cre recombinase antibody. VEGF expression level was not detectable in Ko.c cell lines by ELISA.
(§2) Migration assays were performed using BD Falcon™ FluoroBlok™ 24-Multiwell Insert System, 8 um pore size (BD Biosciences, Bedford, Mass.). The plates were coated with 5 ug/ml Fibronectin (Sigma) for 2 hours at 37° C. Cells in 300 μl assay medium (0.5% FBS, DMEM/F12) were added to the upper chamber. HGF 40 ng/ml in 750 ul assay medium was added to the lower chamber, and cells were incubated at 37° C. for 18 hours. Cells on the lower surface were fixed in MeOH and stained with YO-PRO-1 (Molecular Probes, Eugene, Oreg.). Images were acquired and analyzed using the ImageXpress Micro platform (MDS Analytical; Sunnyvale, Calif.). The Count Nuclei application in Metamorph was used to identify and count migrated cells.

[3] = test system: KO.c cell line; assay: Cell migration assay, response to HGF; type: cell-based, mouse; details: HGF 40 ng/ml, 18 hours, KO.c cells
Description: as §1, §2

[4] = test system: primary epithelial cells from PyMT.epiVEGF−/− tumors; assay: Cell migration assay, response to HGF; type: cell-based, mouse; details: HGF 40 ng/ml, 18 hours, primary tumors from PyMT.epiVEGF−/− mice
Description: as §1, §2

[5] = test system: WT.c cell line; assay: Cell migration assay, response to HGF; type: cell-based, mouse; details: HGF 40 ng/ml, 18 hours, WT.c cells
Description: as §1, §2

Row | Substance | tumor angiogenesis [1] | tumor growth [1] | average increase in migratory response to HGF [2] [fold] | fold increase in migration with HGF treatment [3] [fold] | average increase in migratory response to HGF [4] [fold] | fold increase in migration with HGF treatment [5] [fold]
1 | bevacizumab: humanized anti-VEGF monoclonal antibody | reduced | significantly inhibited | – | – | – | –
2 | HGF: hepatocyte growth factor, added at 40 ng/ml to the lower chamber in the migration assay | – | – | 1.8 | 2.3 | 2.5 | 1.5
